Assay results as given in ChEMBL document CHEMBL1759872, “Small-molecule probe using dual signals to monitor leucine aminopeptidase activity” (Bioorg Med Chem Lett, 2011).

What was measured:
HCT-116 [1] = experiment: Drug uptake in human HCT116 cells at 20 uM after 20 mins by DAPI staining based microscopic analysis in presence of bestatin; type: ADME, cell-based; details: hct-116, 20 min
HCT-116 [2] = experiment: Drug uptake in human HCT116 cells at 20 uM after 20 mins by DAPI staining based microscopic analysis; type: ADME, cell-based; details: hct-116, 20 min
Sus scrofa = organism: Sus scrofa; experiment: Activity at pig kidney LAP after 40 mins by Michaelis-Menten equation; type: tissue-based
[3] = Competitive inhibition of pig kidney LAP activity using N-(6-Methoxypyridine-3-yl), (S)-2-amino-4-methylpentanamide as substrate after 10 mins by Michaelis-Menten equation
[4] = Competitive inhibition of pig kidney LAP activity using l-Leucine-p-nitroanilide as substrate after 10 mins by Michaelis-Menten equation
[5] = Competitive inhibition of pig kidney LAP activity using DCDHF-Leu as substrate after 10 mins by Michaelis-Menten equation

CC(C)C[C@H](N)C(=O)Nc1ccc(/C=C/C2=C(C#N)C(=C(C#N)C#N)OC2(C)C)cc1
Drug uptake (HCT-116 [1]): Not Active
fold change (FC) (HCT-116 [2]): 6
Km (Sus scrofa): 8.87 µM
Vmax (Sus scrofa): 6.64 µmol/min/mg

CC(C)C[C@H](NC(=O)[C@@H](O)[C@H](N)Cc1ccccc1)C(=O)O [UBENIMEX]
IC50 [3]: 7 µM
IC50 [4]: 25 µM
IC50 [5]: 4.41 µM

COc1ccc(NC(=O)[C@@H](N)CC(C)C)cn1
Km (Sus scrofa): 65 µM
Vmax (Sus scrofa): 7.7 µmol/min/mg

CC(C)C[C@H](N)C(=O)Nc1ccc([N+](=O)[O-])cc1
Km (Sus scrofa): 3000 µM
Vmax (Sus scrofa): 3.9 µmol/min/mg

CC1(C)OC(=C(C#N)C#N)C(C#N)=C1/C=C/c1ccc(N)cc1
Drug uptake (HCT-116 [2]): Active
